# Earlier results in publication PMC6099957, “Mouse β-Defensin 3, A Defensin Inhibitor of Both Its Endogenous and Exogenous Potassium Channels” (Molecules : A Journal of Synthetic Chemistry and Natural …, 2018).
# Test system: Kv1.3
# Settings: read-out: IC50 as Kv1.3 inhibitor; cited from earlier work
# Description: Here, the Kv1.3 channel-sensitive hBD2 was used as the molecular template to search potential mouse β-defensin from the biological databases. […] Besides the sequence similarity, the distribution of six cysteine amino acid residues was also identical. In order to better understand the structural feature of mBD3, its structure was modeled by the tem ...
substance,measurement,value
human β-defensin 2 [hBD2],IC50,0.022 nM
